Source: patent publication US8563715B2, “Pyrimidine derivative having cell protecting effect and uses thereof” (Zenyaku Kogyo Kabushikikaisha, priority 2008, dated 2013)

melting point [°C] | SMILES
77 to 78 | Cc1cccc(N2CCN(c3nc(N4CCN(Cc5ccc(N)cc5)CC4)nc(N4CCOCC4)c3F)CC2)c1C [Compound 194, 2-[4-(4-aminobenzyl)piperazin-1-yl]-5-fluoro-4-morpholino-6-[4-(2,3-xylyl)piperazin-1-yl]pyrimidine]
118 | Fc1c(N2CCOCC2)nc(N2CCN(c3ccccc3Cl)CC2)nc1N1CCOCC1 [Compound 102, 2-[4-(2-chlorophenyl)piperazin-1-yl]-5-fluoro-4,6-dimorpholinopyrimidine]
71 to 72 | Cc1ccccc1N1CCN(c2nc(N3CCN(c4ccccc4F)CC3)nc(N3CCOCC3)c2F)CC1 [Compound 127, 5-fluoro-2-[4-(2-fluorophenyl)piperazin-1-yl]-4-[4-(2-methylphenyl)piperazin-1-yl]-6-morpholinopyrimidine]
163 to 165 | c1ccc(-c2c(N3CCOCC3)nc(N3CCN(c4ccccc4)CC3)nc2N2CCOCC2)cc1 [Compound 46, 4,6-dimorpholino-5-phenyl-2-(4-phenylpiperazin-1-yl)pyrimidine]
201 to 203 | Cc1ccc(N2CCN(c3nc(N4CCOCC4)c(F)c(N4CCOCC4)n3)CC2)cc1 [Compound 98, 5-fluoro-2-[4-(4-methylphenyl)piperazin-1-yl]-4,6-dimorpholinopyrimidine]
56 to 57 | Cc1cccc(N2CCN(c3nc(N4CCN(C)CC4)nc(N4CCOCC4)c3F)CC2)c1C [Compound 183, 5-fluoro-2-(4-methylpiperazin-1-yl)-4-morpholino-6-[4-(2,3-xylyl)piperazin-1-yl]pyrimidine]
162 to 165 | c1ccc(Cc2c(N3CCOCC3)nc(N3CCOCC3)nc2N2CCN(c3ccccc3)CC2)cc1 [Compound 49, 5-benzyl-2,4-dimorpholino-6-(4-phenylpiperazin-1-yl)pyrimidine]
70 to 71 | Fc1c(N2CCNCC2)nc(N2CCN(c3ccccc3Cl)CC2)nc1N1CCOCC1 [Compound 189, 2-[4-(2-chlorophenyl)piperazin-1-yl]-5-fluoro-4-morpholino-6-(1-piperazinyl)pyrimidine]
144 | Fc1ccccc1N1CCN(c2nc(N3CCOCC3)c(F)c(N3CCOCC3)n2)CC1 [Compound 106, 5-fluoro-2-[4-(2-fluorophenyl)piperazin-1-yl]-4,6-dimorpholinopyrimidine]
67 to 68 | Cc1cccc(N2CCN(c3nc(N4CCOCC4)c(F)c(N4CCN(C)CC4)n3)CC2)c1C [Compound 184, 5-fluoro-4-(4-methylpiperazin-1-yl)-6-morpholino-2-[4-(2,3-xylyl)piperazin-1-yl]pyrimidine]
195 to 198 | Fc1ccc(N2CCN(c3nc(N4CCOCC4)c(F)c(N4CCOCC4)n3)CC2)cc1 [Compound 96, 5-fluoro-2-[4-(4-fluorophenyl)piperazin-1-yl]-4,6-dimorpholinopyrimidine]
67 to 68 | Cc1cccc(N2CCN(c3nc(N4CCOCC4)nc(N4CCN(C)CC4)c3F)CC2)c1C [Compound 186, 5-fluoro-4-(4-methylpiperazin-1-yl)-2-morpholino-6-[4-(2,3-xylyl)piperazin-1-yl]-pyrimidine]
128 to 129 | CN1CCN(c2nc(N3CCN(c4ccccc4F)CC3)nc(N3CCOCC3)c2F)CC1 [Compound 185, 5-fluoro-2-[4-(2-fluorophenyl)piperazin-1-yl]-4-(4-methylpiperazin-1-yl)-6-morpholinopyrimidine]
72 | Cc1ccccc1N1CCN(c2nc(N3CCOCC3)c(F)c(N3CCOCC3)n2)CC1 [Compound 104, 5-fluoro-2-[4-(2-methylphenyl)piperazin-1-yl]-4,6-dimorpholinopyrimidine]

The remaining lines, values behind:

SMILES | melting point [°C]
CC(=O)N1CCN(c2cc(N3CCOCC3)nc(N3CCN(c4ccccc4)CC3)n2)CC1 [Compound 54, 4-(4-acetylpiperazin-1-yl)-6-morpholino-2-(4-phenylpiperazin-1-yl)pyrimidine] | 171 to 172
CC(=O)C1(c2ccccc2)CCN(c2nc(N3CCOCC3)cc(N3CCOCC3)n2)CC1 [Compound 38, 2-(4-acetyl-4-phenylpiperidin-1-yl)-4,6-dimorpholinopyrimidine] | 115 to 118
O=CN1CCN(c2cc(N3CCOCC3)nc(N3CCN(c4ccccc4)CC3)n2)CC1 [Compound 53, 4-(4-formylpiperazin-1-yl)-6-morpholino-2-(4-phenylpiperazin-1-yl)pyrimidine] | 171 to 172
c1ccc(C2CN(c3cc(N4CCOCC4)nc(N4CCOCC4)n3)CCN2)cc1 (stereo not drawn) [Compound 17, 2,4-dimorpholino-6-(3-phenylpiperazin-1-yl)pyrimidine] | 181 to 185
COc1ccc(/C=C/c2nc(N(C)C)c(N)c(N3CCOCC3)n2)cc1 [Compound 138, 5-amino-4-dimethylamino-2-[2-(4-methoxyphenyl)vinyl]-6-morpholinopyrimidine] | 130 to 133
c1ccc2c(c1)CN(c1nc(N3CCOCC3)cc(N3CCOCC3)n1)C2 [Compound 10, 2-(isoindolin-2-yl)-4,6-dimorpholinopyrimidine] | 194 to 198
CC(=O)c1ccc(N2CCN(c3nc(N4CCOCC4)c(F)c(N4CCOCC4)n3)CC2)cc1 [Compound 100, 2-[4-(4-acetylphenyl)piperazin-1-yl]-5-fluoro-4,6-dimorpholinopyrimidine] | 195 to 198
c1ccc(Cc2c(N3CCOCC3)nc(N3CCN(c4ccccc4)CC3)nc2N2CCOCC2)cc1 [Compound 48, 5-benzyl-4,6-dimorpholino-2-(4-phenylpiperazin-1-yl)pyrimidine] | 141 to 144
Cc1ccccc1/C=C/c1nc(N2CCOCC2)c(N)c(N2CCOCC2)n1 [Compound 137, 5-amino-2-[2-(2-methylphenyl)vinyl]-4,6-dimorpholinopyrimidine] | 151 to 154
Fc1c(N2CCOCC2)nc(N2CCOCC2)nc1N1CCN(C2CCCCC2)CC1 [Compound 124, 4-(4-cyclohexylpiperazin-1-yl)-5-fluoro-2,6-dimorpholinopyrimidine] | 125 to 128
C1=C(c2ccccc2)CCN(c2nc(N3CCOCC3)cc(N3CCOCC3)n2)C1 [Compound 40, 4,6-dimorpholino-2-[4-phenyl (1,2,5,6-tetrahydropyridin-1-yl)]pyrimidine] | 157 to 160
Clc1ccc(N2CCN(c3nc(N4CCOCC4)cc(N4CCOCC4)n3)CC2)cc1 [Compound 33, 2-[4-(4-chlorophenyl)piperazin-1-yl]-4,6-dimorpholinopyrimidine] | 213
CC(=O)C1(c2ccccc2)CCN(c2nc(N3CCOCC3)c(F)c(N3CCOCC3)n2)CC1 [Compound 118, 2-(4-acetyl-4-phenylpiperidin-1-yl)-5-fluoro-4,6-dimorpholinopyrimidine] | 201 to 205
Fc1c(N2CCOCC2)nc(N2CC=C(c3ccccc3)CC2)nc1N1CCOCC1 [Compound 120, 5-fluoro-4,6-dimorpholino-2-[4-phenyl-1,2,5,6-tetrahydropyridin-1-yl]pyrimidine] | 132 to 135
OC1(c2ccccc2)CCN(c2nc(N3CCOCC3)c(F)c(N3CCOCC3)n2)CC1 [Compound 116, 5-fluoro-2-(4-hydroxy-4-phenylpiperidin-1-yl)-4,6-dimorpholinopyrimidine] | 177 to 180
CCNc1c(N2CCOCC2)nc(N2CCN(c3ccccc3)CC2)nc1N1CCOCC1 [Compound 80, 5-ethylamino-4,6-dimorpholino-2-(4-phenylpiperazin-1-yl)pyrimidine] | 100 to 104
Fc1c(N2CCOCC2)nc(N2CCNC(c3ccccc3)C2)nc1N1CCOCC1 (stereo not drawn) [Compound 93, 5-fluoro-4,6-dimorpholino-2-(3-phenylpiperazin-1-yl)pyrimidine] | 170 to 175
CN(C)c1c(N2CCOCC2)nc(N2CCN(c3ccccc3)CC2)nc1N1CCOCC1 [Compound 141, 5-dimethylamino-4,6-dimorpholino-2-(4-phenylpiperazin-1-yl)pyrimidine] | 208 to 210
Clc1ccccc1N1CCN(c2nc(N3CCOCC3)cc(N3CCOCC3)n2)CC1 [Compound 26, 2-[4-(2-chlorophenyl)piperazin-1-yl]-4,6-dimorpholinopyrimidine] | 156
COc1ccc(/C=C/c2nc(N3CCOCC3)c(NC(C)=O)c(N3CCOCC3)n2)cc1 [Compound 79, 5-acetylamino-2-[2-(4-methoxyphenyl)vinyl]-4,6-dimorpholinopyrimidine] | 189 to 191
Cc1ccccc1N1CCN(c2nc(N3CCOCC3)cc(N3CCOCC3)n2)CC1 [Compound 28, 2-[4-(2-methylphenyl)piperazin-1-yl]-4,6-dimorpholino-pyrimidine] | 149
c1ccc(N2CCN(c3nc(N4CCOCC4)cc(N4CCOCC4)n3)CC2)cc1 [Compound 1, 4,6-dimorpholino-2-(4-phenylpiperazin-1-yl)pyrimidine] | 182 to 184
c1cnc(N2CCN(c3nc(N4CCOCC4)cc(N4CCOCC4)n3)CC2)nc1 [Compound 14, 4,6-dimorpholino-2-[4-(pyrimidin-2-yl)piperazin-1-yl]pyrimidine] | 212 to 215
CCCCN(CCCC)c1cc(N2CCOCC2)nc(N2CCN(c3ccccc3)CC2)n1 [Compound 55, 6-dibutylamino-4-morpholino-2-(4-phenylpiperazin-1-yl)pyrimidine] | 84 to 85
CC(=O)Nc1c(N2CCOCC2)nc(N2CCN(c3ccccc3)CC2)nc1N1CCOCC1 [Compound 77, 5-acetylamino-4,6-dimorpholino-2-(4-phenylpiperazin-1-yl)pyrimidine] | 229 to 230
Fc1ccc(N2CCN(c3nc(N4CCOCC4)cc(N4CCOCC4)n3)CC2)cc1 [Compound 20, 2-[4-(4-fluorophenyl)piperazin-1-yl]-4,6-dimorpholinopyrimidine] | 196 to 199
Cc1c(N2CCOCC2)nc(N2CCN(c3ccccc3)CC2)nc1N1CCOCC1 [Compound 44, 5-methyl-4,6-dimorpholino-2-(4-phenylpiperazin-1-yl)pyrimidine] | 99 to 102
OC1(c2ccccc2)CCN(c2nc(N3CCOCC3)nc(N3CCOCC3)c2F)CC1 [Compound 117, 5-fluoro-4-(4-hydroxy-4-phenylpiperidin-1-yl)-2,6-dimorpholinopyrimidine] | 128 to 131
